Test results: article PMC8667902 (Journal of Enzyme Inhibition and Medicinal Chemistry, 2021)
Several values for one entry are separate records, joined by “and”; a condition that tells them apart may be missing. Equal entries are not always repeated.

Experiments:
ratAChE = biological target: T1, ratAChE (Rattus norvegicus, UniProt P37136); assay: Ellman's method, AChE from rat cortex homogenate; format: biochemical; details: ratBuChE over rat AChE
T1 sequence (P37136 32-614): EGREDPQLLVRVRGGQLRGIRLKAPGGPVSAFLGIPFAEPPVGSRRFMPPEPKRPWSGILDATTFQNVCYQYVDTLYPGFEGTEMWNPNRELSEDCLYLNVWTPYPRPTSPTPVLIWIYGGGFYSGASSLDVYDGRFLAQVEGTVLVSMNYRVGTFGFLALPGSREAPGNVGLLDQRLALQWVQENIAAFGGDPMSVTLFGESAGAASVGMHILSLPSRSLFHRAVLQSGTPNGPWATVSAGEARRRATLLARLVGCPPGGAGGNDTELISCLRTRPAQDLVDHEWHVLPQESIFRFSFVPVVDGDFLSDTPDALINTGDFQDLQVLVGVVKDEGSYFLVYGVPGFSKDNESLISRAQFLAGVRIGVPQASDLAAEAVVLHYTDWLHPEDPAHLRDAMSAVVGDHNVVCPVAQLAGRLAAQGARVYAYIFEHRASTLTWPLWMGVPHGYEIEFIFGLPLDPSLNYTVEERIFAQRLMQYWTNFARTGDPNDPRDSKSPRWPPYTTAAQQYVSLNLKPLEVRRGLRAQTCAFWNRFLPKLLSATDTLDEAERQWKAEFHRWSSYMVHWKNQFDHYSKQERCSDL

eeAChE = eeAChE (Electrophorus electricus, UniProt O42275); assay: Ellman's method, electric eel AChE; format: biochemical
ratBuChE = ratBuChE (Rattus norvegicus, UniProt Q9JKC1); assay: Ellman's method, BuChE from rat serum; format: biochemical
[1] = Oxygen Radicals Absorbance Capacity by Fluorescence
AChE = assay: Kinetic characterisation of AChE inhibition; format: biochemical; details: Lineweaver-Burk plots, substrate acetylthiocholine
AChE PAS (eeAChE) = AChE PAS (eeAChE) (Electrophorus electricus, UniProt O42275); assay: Propidium iodide displacement assay; format: binding, electric eel; details: read-out: Propidium iodide displacement from AChE PAS (% inhibition)
[2] = biological target: huAChE-induced Aβ1–40 aggregation (Homo sapiens, UniProt P22303); assay: Inhibition of huAChE-induced Aβ1–40 aggregation; format: biochemical; details: compound 100 μM, Aβ1–40 230 μM, Aβ1–40/HuAChE 100/1; ThT; mean ± SEM
Aβ1–42 [3] = biological target: T2, Aβ1–42 (Homo sapiens, UniProt P05067); assay: Inhibition of self-induced Aβ1–42 aggregation; format: biochemical; details: read-out: Inhibition of Aβ1–42 aggregation (%) Self-induced, 25 μM; ThT assay
Aβ1–42 [4] = biological target: T2, Aβ1–42; assay: Inhibition of Cu2+-induced Aβ1–42 aggregation; format: biochemical; details: read-out: Inhibition of Aβ1–42 aggregation (%) Cu^2+-induced
Aβ1–42 fibrils [5] = biological target: T3, Aβ1–42 fibrils (Homo sapiens, UniProt P05067); assay: Disaggregation of self-induced Aβ1–42 aggregation; format: biochemical; details: 25 μM; ThT assay
Aβ1–42 fibrils [6] = biological target: T3, Aβ1–42 fibrils; assay: Disaggregation of Cu2+-induced Aβ1–42 aggregation; format: biochemical; details: 25 μM; ThT assay
huMAO-B = biological target: T4, huMAO-B (Homo sapiens, UniProt P27338); assay: biochemical
T4 sequence (P27338 1-520): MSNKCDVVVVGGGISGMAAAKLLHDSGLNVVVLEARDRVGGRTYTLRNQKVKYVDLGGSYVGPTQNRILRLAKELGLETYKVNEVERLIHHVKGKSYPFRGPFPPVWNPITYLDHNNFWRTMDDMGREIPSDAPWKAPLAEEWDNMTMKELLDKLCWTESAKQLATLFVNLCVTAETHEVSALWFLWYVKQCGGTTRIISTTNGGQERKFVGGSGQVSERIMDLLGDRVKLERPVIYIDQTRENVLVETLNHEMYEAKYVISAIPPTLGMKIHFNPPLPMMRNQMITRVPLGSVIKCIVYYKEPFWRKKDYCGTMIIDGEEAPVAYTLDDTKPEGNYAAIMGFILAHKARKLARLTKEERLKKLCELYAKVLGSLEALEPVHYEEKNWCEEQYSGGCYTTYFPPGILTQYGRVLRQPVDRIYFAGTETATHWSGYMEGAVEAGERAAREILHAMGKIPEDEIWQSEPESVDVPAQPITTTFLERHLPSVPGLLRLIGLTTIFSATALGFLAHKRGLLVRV

huMAO-A = biological target: T5, huMAO-A (Homo sapiens, UniProt P21397); assay: huMAO-A inhibition, fluorescence method; format: biochemical
T5 sequence (P21397 1-527): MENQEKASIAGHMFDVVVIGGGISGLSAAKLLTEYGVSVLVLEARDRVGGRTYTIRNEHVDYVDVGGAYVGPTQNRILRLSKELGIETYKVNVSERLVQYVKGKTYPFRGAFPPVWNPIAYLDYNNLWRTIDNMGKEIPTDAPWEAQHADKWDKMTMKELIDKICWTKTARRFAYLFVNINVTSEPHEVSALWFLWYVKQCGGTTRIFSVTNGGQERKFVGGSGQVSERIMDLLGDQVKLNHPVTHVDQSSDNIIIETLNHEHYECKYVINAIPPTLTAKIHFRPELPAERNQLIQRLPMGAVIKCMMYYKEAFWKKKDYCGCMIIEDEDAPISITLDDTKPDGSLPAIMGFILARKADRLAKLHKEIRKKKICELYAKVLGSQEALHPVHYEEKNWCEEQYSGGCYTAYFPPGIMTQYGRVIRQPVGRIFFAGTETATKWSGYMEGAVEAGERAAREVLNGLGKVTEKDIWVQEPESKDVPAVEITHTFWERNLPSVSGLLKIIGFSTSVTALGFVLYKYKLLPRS

[7] = Metal chelation by UV-vis spectrometry and molar ratio method; format: physicochemical
PC12 cells [8] = assay: Cytotoxicity in PC12 cells, MTT assay; format: cell-based; details: up to 50 µM
PC12 cells [9] = assay: Neuroprotection against H2O2-induced PC12 cell injury, LDH assay; format: cell-based; details: H2O2 alone 712.7, vehicle 602.3
[10] = 37.5 μM, peak of compound alone: 9d 362 nm, 17f 350 nm

T3 sequence (P05067 672-713): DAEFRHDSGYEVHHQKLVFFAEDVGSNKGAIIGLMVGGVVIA
Chain of AChE PAS (eeAChE) (O42275 24-633): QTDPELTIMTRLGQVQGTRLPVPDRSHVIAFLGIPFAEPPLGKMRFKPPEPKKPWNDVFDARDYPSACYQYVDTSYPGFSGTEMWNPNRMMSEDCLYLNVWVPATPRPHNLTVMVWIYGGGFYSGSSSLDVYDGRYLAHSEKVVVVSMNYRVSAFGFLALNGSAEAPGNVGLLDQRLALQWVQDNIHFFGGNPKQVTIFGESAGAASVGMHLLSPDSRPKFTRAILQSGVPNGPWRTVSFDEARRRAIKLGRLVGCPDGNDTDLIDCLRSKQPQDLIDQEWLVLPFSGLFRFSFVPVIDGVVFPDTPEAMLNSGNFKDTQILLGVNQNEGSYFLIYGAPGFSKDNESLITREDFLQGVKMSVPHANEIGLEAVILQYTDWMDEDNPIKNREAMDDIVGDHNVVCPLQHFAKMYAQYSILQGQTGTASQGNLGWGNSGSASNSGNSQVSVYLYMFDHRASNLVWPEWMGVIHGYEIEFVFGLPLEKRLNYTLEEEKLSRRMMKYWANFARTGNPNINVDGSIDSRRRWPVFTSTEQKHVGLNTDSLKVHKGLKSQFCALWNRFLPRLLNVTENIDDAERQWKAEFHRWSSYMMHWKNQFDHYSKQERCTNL
T2 sequence (P05067 672-713): as the sequence (P05067 672-713) above
Chain of eeAChE (O42275 24-633): as the sequence (O42275 24-633) above
Chain of ratBuChE (Q9JKC1 24-597): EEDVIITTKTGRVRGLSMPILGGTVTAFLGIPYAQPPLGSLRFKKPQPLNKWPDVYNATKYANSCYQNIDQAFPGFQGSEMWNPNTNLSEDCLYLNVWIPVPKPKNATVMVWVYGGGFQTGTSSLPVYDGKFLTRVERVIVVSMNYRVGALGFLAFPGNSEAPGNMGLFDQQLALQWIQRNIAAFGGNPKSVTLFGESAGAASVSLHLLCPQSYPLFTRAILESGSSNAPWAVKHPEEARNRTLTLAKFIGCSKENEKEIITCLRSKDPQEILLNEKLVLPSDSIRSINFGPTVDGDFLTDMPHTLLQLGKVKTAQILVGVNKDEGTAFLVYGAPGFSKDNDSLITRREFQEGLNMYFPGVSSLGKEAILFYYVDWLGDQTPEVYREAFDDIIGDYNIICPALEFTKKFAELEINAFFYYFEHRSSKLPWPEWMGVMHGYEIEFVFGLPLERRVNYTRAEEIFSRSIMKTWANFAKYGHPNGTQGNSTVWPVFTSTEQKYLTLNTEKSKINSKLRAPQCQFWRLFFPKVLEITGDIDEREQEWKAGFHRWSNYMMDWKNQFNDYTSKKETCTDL
Chain of huAChE-induced Aβ1–40 aggregation (P22303 32-614): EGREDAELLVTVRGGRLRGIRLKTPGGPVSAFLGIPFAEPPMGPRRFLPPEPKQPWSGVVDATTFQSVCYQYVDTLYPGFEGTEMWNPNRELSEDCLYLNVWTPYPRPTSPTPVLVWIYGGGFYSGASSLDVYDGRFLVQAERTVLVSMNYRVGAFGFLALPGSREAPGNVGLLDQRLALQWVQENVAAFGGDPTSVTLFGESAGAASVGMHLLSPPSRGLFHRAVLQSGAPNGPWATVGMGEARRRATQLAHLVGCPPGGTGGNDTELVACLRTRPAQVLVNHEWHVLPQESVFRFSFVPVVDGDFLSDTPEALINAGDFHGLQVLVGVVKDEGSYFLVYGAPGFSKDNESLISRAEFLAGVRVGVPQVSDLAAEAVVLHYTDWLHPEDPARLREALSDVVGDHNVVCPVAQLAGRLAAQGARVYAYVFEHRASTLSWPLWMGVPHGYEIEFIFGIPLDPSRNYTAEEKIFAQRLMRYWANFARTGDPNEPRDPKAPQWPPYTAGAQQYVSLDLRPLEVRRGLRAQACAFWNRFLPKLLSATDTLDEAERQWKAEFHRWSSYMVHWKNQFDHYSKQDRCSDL

## CCN(CCCCCCOc1ccc(/C=C/C(=O)c2c(O)cc(OC)c(O)c2OC)cc1)Cc1ccccc1OC [Compound 17f, (E)-1-(3,6-dihydroxy-2,4-dimethoxyphenyl)-3-(4-((6-(ethyl(2-methoxybenzyl)amino)hexyl)oxy)phenyl)prop-2-en-1-one]
ratAChE
  SI = Selectivity index = IC50 (BuChE)/IC50 (AChE): >1219.5
eeAChE
  IC50: 1.88 ± 0.01 µM
ratBuChE
  IC50: > 500 µM
[1]; Trolox as reference
  ORAC: 3.3 ± 0.01 μM of Trolox equivalent/μM of compounds
[1]; Trolox equivalents
  ORAC-FL value: 3.3 eq
AChE
  type of AChE inhibition: mixed-type AChE inhibition
AChE PAS (eeAChE)
  inhibition at 10 µM: 23.9 ± 1.6%
  inhibition at 50 µM: 34.2 ± 2.3%
[2]
  % Inhibition of huAChE-induced Aβ aggregation: 53.9 ± 3.7%
Aβ1–42 [3]
  inhibition at 25 µM: 78 ± 0.02%
Aβ1–42 [4]
  inhibition at 25 µM: 93.5 ± 0.01%
Aβ1–42 fibrils [5]
  Disaggregation of Aβ1–42 aggregation (%) Self-induced: 72.3% and 72.3 ± 0.06%
Aβ1–42 fibrils [6]
  Disaggregation of Aβ1–42 aggregation (%) Cu^2+-induced: 84.5% and 84.5 ± 0.35%
huMAO-B
  IC50: 8.8 ± 0.06 µM
  SI = selectivity index = IC50 (hMAO-A)/IC50 (hMAO-B): 4.3
huMAO-A
  IC50: 37.5 ± 0.35 µM
[7]; 37.5 μM
  shift of characteristic UV peak after adding FeSO4 and ZnCl2: no significant shift
[7]; 37.5 μM compound, ascending CuCl2
  mole fraction at break (molar ratio method, compound-Cu^2+): 1.03
[7]; [10]
  characteristic UV peak after adding AlCl3 (red shift): 370 nm
  characteristic UV peak after adding CuCl2 (red shift): 422 nm
PC12 cells [8]
  cytotoxicity in PC12 cells: did not show obvious cytotoxicity
PC12 cells [9]; PC12, 100 µM H2O2, compound 10 µM
  LDH vitality: 621.3
PC12 cells [9]; PC12, 100 µM H2O2, compound 50 µM
  LDH vitality: 549.7
PAMPA-BBB; PAMPA
  Papp: 4.23 ± 0.37 ×10⁻⁶ cm/s
PAMPA-BBB; PAMPA-BBB
  Prediction (BBB penetration): CNS+ (Pe (×10^−6 cm/s) > 3.44 × 10^−6 cm/s possess high BBB permeation)
